The compounds below were run against T1, human P2X7 (Homo sapiens, UniProt Q99572) (assay: Intracellular Calcium Flux (FLIPR) Assay). Settings: 1321N1 cells stably expressing full length human P2X7; agonist 100 μM BzATP; fluo-3 calcium flux; read-out: FLIPR pIC50 hP2X7-1321n1 (converted).
T1 construct: 1321N1 cells stably expressing the full length human P2X7 gene (1321N1-hP2X7)
T1 sequence (Q99572 1-595): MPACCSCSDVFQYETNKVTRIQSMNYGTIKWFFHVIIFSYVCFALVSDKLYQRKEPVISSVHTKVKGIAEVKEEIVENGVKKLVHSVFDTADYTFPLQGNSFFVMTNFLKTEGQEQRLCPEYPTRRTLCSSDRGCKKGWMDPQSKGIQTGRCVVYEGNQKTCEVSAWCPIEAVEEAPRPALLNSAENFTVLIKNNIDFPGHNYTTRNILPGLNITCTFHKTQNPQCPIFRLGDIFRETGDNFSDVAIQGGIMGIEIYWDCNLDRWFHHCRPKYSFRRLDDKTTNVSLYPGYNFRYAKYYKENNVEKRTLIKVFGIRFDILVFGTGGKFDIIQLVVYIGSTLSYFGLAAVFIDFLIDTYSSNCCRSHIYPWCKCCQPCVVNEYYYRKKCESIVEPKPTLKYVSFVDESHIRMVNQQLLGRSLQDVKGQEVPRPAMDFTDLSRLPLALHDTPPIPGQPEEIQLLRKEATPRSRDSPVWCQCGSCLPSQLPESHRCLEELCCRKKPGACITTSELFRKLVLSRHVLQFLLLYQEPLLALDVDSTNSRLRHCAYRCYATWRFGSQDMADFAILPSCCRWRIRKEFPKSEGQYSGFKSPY
Format: cell-based
Method: Stock solutions of compounds were prepared from powders as a 10 mM DMSO stock solution. These solutions were stored at RT during the two week period of these experiments to prevent freeze-thaw of the DMSO stocks. The DMSO stocks were added to the appropriate assay buffer at a concentration of 10 μM, and then diluted serially to the final concentrations that were tested. No observable precipitate was formed at any time during this process. The aqueous solutions of compounds as well as ATP (Sigma A7699) and BzATP (Sigma B6396) were prepared fresh for each day of experiment.
1321N1 cells stably expressing the full length human P2X7 gene (1321N1-hP2X7) and HEK293 cells stably expressing the full length rat P2X7 gene (HEK293-rP2X7) were obtained from the Roche Cell Culture Facility. 1321N1-hP2X7 cells were grown in Dulbecco's Modified Eagle's Medium (DMEM) high glucose supplemented with 10% FBS and 250 μg/mL G418. HEK293-rP2X7 cells were grown in DMEM/F-12 supplemented with 10% FBS, 1 mM CaCl2, 2 mM MgCl2, 2 mM L-Glutamine and 500 μg/ml G418. Cells were split such that they never became >70% confluent.
On the day prior to the experiment, 1321N1-hP2X7 or HEK293-rP2X7 cells were released into suspension with calcium-free PBS+Versene and washed by centrifugation with calcium-free PBS to remove the Versene. Cells were resuspended in growth medium at a density of 2.5×10^5 cells/mL and seeded into black walled, clear bottom 96 well plates (50,000 cells/well) approximately 18 hr prior to intracellular calcium flux experiments.
On the day of the experiment, plates were washed with FLIPR buffer (calcium- and magnesium-free Hank's Balanced Salt Solution (HBSS) supplemented with 10 mM Hepes, 2.5 mM probenecid and 2 mM calcium chloride) using a BIO-TEK 96 channel plate washer and incubated with […] fluo-3 dye at 37° C. for one hr. The dye was then removed by plate washing and the cells were allowed to equilibrate for 20 min at room temperature with antagonist or vehicle (FLIPR buffer). Agonist (100 μM BzATP final concentration for hP2X7; 5 μM BzATP final concentration or rP2X7) was added online with the FLIPR and fluorescence measurements made at 1 sec intervals for 60 sec followed by 3 sec intervals for a further 4 min (5 min total). A final addition of 5 μM ionomycin was made and the maximal BzATP-evoked fluorescence normalized to the maximal ionomycin-evoked fluorescence.

| SMILES | IC50 [µM] |
| --- | --- |
| Cc1ccccc1C[C@H](C(=O)Nc1nc2ccccc2o1)c1ccc(S(C)(=O)=O)cc1 [Compound I-10, (S)—N-Benzooxazol-2-yl-2-(4-methanesulfonyl-phenyl)-3-o-tolyl-propionamide] | 0.427 |
| Cc1ccccc1C[C@@H](C(=O)Nc1nc2ccccc2o1)c1ccc(S(C)(=O)=O)cc1 [Compound I-11, (R)—N-Benzooxazol-2-yl-2-(4-methanesulfonyl-phenyl)-3-o-tolyl-propionamide] | 0.0813 |
| CS(=O)(=O)c1ccc(C(Cc2ccc(F)cc2)C(=O)Nc2cnc(Br)cn2)cc1 (stereo not drawn) [Compound I-13, N-(5-Bromo-pyrazin-2-yl)-3-(4-fluoro-phenyl)-2-(4-methanesulfonyl-phenyl)-propionamide] | 0.813 |
| CS(=O)(=O)c1ccc(C(Cc2ccc(F)cc2)C(=O)Nc2cnc(CO)cn2)cc1 (stereo not drawn) [Compound I-16, 3-(4-Fluoro-phenyl)-N-(5-hydroxymethyl-pyrazin-2-yl)-2-(4-methanesulfonyl-phenyl)-propionamide] | 0.117 |
| CC(C)(O)c1cnc(NC(=O)C(Cc2ccc(F)cc2)c2ccc(S(C)(=O)=O)cc2)cn1 (stereo not drawn) [Compound I-17, 3-(4-Fluoro-phenyl)-N-[5-(1-hydroxy-1-methyl-ethyl)-pyrazin-2-yl]-2-(4-methanesulfonyl-phenyl)-propionamide] | 1.07 |
| COCCN(C)Cc1cnc(NC(=O)C(Cc2ccc(F)cc2)c2ccc(S(C)(=O)=O)cc2)cn1 (stereo not drawn) [Compound I-23, 3-(4-Fluoro-phenyl)-2-(4-methanesulfonyl-phenyl)-N-(5-{[(2-methoxy-ethyl)-methyl-amino]-methyl}-pyrazin-2-yl)-propionamide] | 0.646 |
| CN(Cc1ccccc1)Cc1cnc(NC(=O)C(Cc2ccc(F)cc2)c2ccc(S(C)(=O)=O)cc2)cn1 (stereo not drawn) [Compound I-24, N-{5-[(Benzyl-methyl-amino)-methyl]-pyrazin-2-yl}-3-(4-fluoro-phenyl)-2-(4-methanesulfonyl-phenyl)-propionamide] | 1.05 |
| Cc1cc(S(C)(=O)=O)ccc1C(Cc1ccc(F)cc1)C(=O)Nc1nc2ccccc2o1 (stereo not drawn) [Compound I-27, N-Benzooxazol-2-yl-3-(4-fluoro-phenyl)-2-(4-methanesulfonyl-2-methyl-phenyl)-propionamide] | 0.204 |

The next lines start with the values.

| IC50 [µM] | SMILES |
| --- | --- |
| 0.437 | O=C(Nc1nc2ccccc2o1)C(Cc1ccc(F)cc1)c1ccc(F)cc1 (stereo not drawn) [Compound I-28, N-Benzooxazol-2-yl-2,3-bis-(4-fluoro-phenyl)-propionamide] |
| 0.468 | Cc1cccc2oc(NC(=O)C(Cc3ccc(F)cc3)c3ccc(S(C)(=O)=O)cc3)nc12 (stereo not drawn) [Compound I-35, 3-(4-Fluoro-phenyl)-2-(4-methanesulfonyl-phenyl)-N-(4-methyl-benzooxazol-2-yl)-propionamide] |
| 0.191 | Cc1ccc2nc(NC(=O)C(Cc3ccc(F)cc3)c3ccc(S(C)(=O)=O)cc3)oc2c1 (stereo not drawn) [Compound I-36, 3-(4-Fluoro-phenyl)-2-(4-methanesulfonyl-phenyl)-N-(6-methyl-benzooxazol-2-yl)-propionamide] |
| 0.166 | Cc1ccc2oc(NC(=O)C(Cc3ccc(F)cc3)c3ccc(S(C)(=O)=O)cc3)nc2c1 (stereo not drawn) [Compound I-37, 3-(4-Fluoro-phenyl)-2-(4-methanesulfonyl-phenyl)-N-(5-methyl-benzooxazol-2-yl)-propionamide] |
| 0.316 | CS(=O)(=O)c1ccc(C(Cc2ccc(F)cc2)C(=O)Nc2nc3ccc(Cl)cc3o2)cc1 (stereo not drawn) [Compound I-38, N-(6-Chloro-benzooxazol-2-yl)-3-(4-fluoro-phenyl)-2-(4-methanesulfonyl-phenyl)-propionamide] |
| 0.126 | CS(=O)(=O)c1ccc(C(Cc2ccc(F)cc2)C(=O)Nc2nc3cc(Cl)ccc3o2)cc1 (stereo not drawn) [Compound I-39, N-(5-Chloro-benzooxazol-2-yl)-3-(4-fluoro-phenyl)-2-(4-methanesulfonyl-phenyl)-propionamide] |
| 0.0389 | CS(=O)(=O)c1ccc(C(Cc2ccc(F)cc2)C(=O)Nc2nc3ccc(F)cc3o2)cc1 (stereo not drawn) [Compound I-40, N-(6-Fluoro-benzooxazol-2-yl)-3-(4-fluoro-phenyl)-2-(4-methanesulfonyl-phenyl)-propionamide] |
